Reference: ChEMBL document CHEMBL3232992, “Synthesis and the hepatoprotective activity of dibenzocyclooctadiene lignan derivatives” (2014)

What follows are compounds tested on L02 (assay: Hepatoprotective activity against carbon tetrachloride-induced toxicity in human HL-7702 cells assessed as increase of cell survival rate at 0.2 ug/ul pretreated for 12 hrs before carbon tetrachloride addition by MTS assay relative to control).
Assay type: functional

In order of rising Survival:
1. COC1=C(OC)C23C(=CC1=O)CC(C)C2(C)Cc1cc(OC)c(OC)c(OC)c13 (stereo unspecified)  34.6%
2. COC(=O)c1cc(OC)c2c(c1-c1c(C(=O)OC)cc(OC)c3c1OCO3)OCO2 [BIFENDATE]  40.3%
3. COc1cc2c(c(OC)c1OC)-c1c(c(I)c(OC)c(OC)c1OC)C[C@](C)(O)[C@@H](C)C2  40.9%
4. COc1cc2c(c(OC)c1OC)-c1c(cc3c(c1OC)OCO3)C[C@H](C)[C@H](C)C2 [WUWEIZISU B]  42.8%
5. COc1cc2c(c(OC)c1OC)-c1c(cc(OC)c(OC)c1OC)C[C@](C)(O)[C@@H](C)C2 [SCHIZANDRIN]  43.3%
6. COc1c(Cl)c2c(c(OC)c1OC)-c1c(cc3c(c1OC)OCO3)C[C@H](C)[C@H](C)C2  43.4%
7. COc1c(Cl)c2c(c(OC)c1OC)-c1c(c(Cl)c(OC)c(OC)c1OC)C[C@](C)(O)[C@@H](C)C2  44%
8. COc1cc2c(c(OC)c1OC)-c1c(c(Cl)c(OC)c(OC)c1OC)C[C@](C)(O)[C@@H](C)C2  44%
9. COc1c(OC)c(C(C)=O)c2c(c1OC)-c1c(cc3c(c1OC)OCO3)C[C@H](C)[C@H](C)C2  44.4%
10. COc1c(I)c2c(c(OC)c1OC)-c1c(c(I)c(OC)c(OC)c1OC)C[C@](C)(O)[C@@H](C)C2  45%
11. COc1cc2c(c(O)c1OC)-c1c(cc(OC)c(OC)c1OC)C[C@@H](C)[C@@H](C)C2 [SCHISANHENOL]  48.1%
12. COc1c(Br)c2c(c(OC)c1OC)-c1c(cc3c(c1OC)OCO3)C[C@H](C)[C@H](C)C2  49.1%
13. COc1cc2c(c(OC)c1OC)-c1c(c(Br)c(OC)c(OC)c1OC)C[C@](C)(O)[C@@H](C)C2  50%
14. COc1c(O)c2c(c(I)c1OC)C[C@H](C)[C@H](C)Cc1c(I)c(OC)c(OC)c(OC)c1-2  50%
15. COc1c(Cl)c2c(c(OC)c1OC)-c1c(c(Cl)c3c(c1OC)OCO3)C[C@H](C)[C@H](C)C2  51.8%
16. COC1=C(OC)C(OC(C)=O)C2=C(C[C@H](C)[C@H](C)Cc3cc(OC)c(OC)c(OC)c32)C1=O (stereo partly specified)  52.7%
17. COc1c(Br)c2c(c(OC)c1OC)-c1c(c(Br)c(OC)c(OC)c1OC)C[C@](C)(O)[C@@H](C)C2  54.2%
18. COc1cc2c(c(OC)c1OC)-c1c(O)c(OC)c(OC)c(Cl)c1C[C@H](C)[C@H](C)C2  63%
19. COc1c(Br)c2c(c(OC)c1OC)-c1c(c(Br)c3c(c1OC)OCO3)C[C@H](C)[C@H](C)C2  63.4%
20. COc1cc2c(c(OC)c1OC)-c1c(cc(OC)c(OC)c1OC(C)=O)C[C@H](C)[C@H](C)C2  65%
21. COc1c(Br)c2c(c(OC)c1OC)-c1c(c(OC)c(OC)c(OC)c1OC)C[C@](C)(O)[C@@H](C)C2  73.6%
22. COc1cc2c(c(OC)c1OC)-c1c(O)c(OC)c(OC)c(Br)c1C[C@H](C)[C@H](C)C2  82%
23. COc1c(O)c2c(c(Br)c1OC)C[C@H](C)[C@H](C)Cc1c(Br)c(OC)c(OC)c(OC)c1-2  83%
24. COC1=C(OC)C(=O)C2=C(C[C@H](C)[C@H](C)Cc3cc(OC)c(OC)c(OC)c32)C1=O  85.5%
25. COc1c(I)c2c(c(OC)c1OC)-c1c(c(I)c3c(c1OC)OCO3)C[C@H](C)[C@H](C)C2  90%
26. COc1c(O)c2c(c(Cl)c1OC)C[C@H](C)[C@H](C)Cc1c(Cl)c(OC)c(OC)c(OC)c1-2  98.5%
